Patent US20260345595A1, “NOVEL FLUORENE DERIVATIVE COMPOUND AND USE THEREOF” (JD BIOSCIENCE INC., priority 2022, published 2026)

How the values were obtained:
[1] = system: cerulein-induced acute pancreatitis in mice; assay: Cerulein-induced acute pancreatitis animal model; format: in vivo, mouse; settings: 5 μg/kg or 10 μg/kg, tail vein; versus Cerulein; FIG. 8
Method: Acute pancreatitis was induced by intraperitoneal administration of cerulein (50 μg/kg) dissolved in saline to 8-week-old male mice. Compound 1 was administered at a concentration of 5 μg/kg or 10 μg/kg into the tail vein 24 hours and 1 hour before cerulein administration, and cerulein was intraperitoneally administered six times at 1-hour intervals. 18 hours after the first cerulein administration, the mice were anesthetized, the serum was separated, and the amylase and lipase activities in the serum were measured, which are shown in FIG. 8.

[2] = system: GvHD in vivo model in BALB/c mice; assay: Graft-versus-host disease (GvHD) animal model; design: species or system mouse; settings: for production of CD4+IFNg+T cells, mean value: spleen, day 14
Method: 5-week-old BALB/c male mice were acclimatized for 1 week and irradiated with 800 cGy of total body irradiation. Then, 5×10^6 bone marrow cells derived from C57BL/6J and 1×10^7 spleen cells were intravenously injected to establish a GvHD in vivo model (positive control). A syngeneic control group was established in the same manner as above, but BALB/c-derived bone marrow cells were selected as the injected bone marrow cells. Compound 1 Daily was established by daily oral gavage of 1 mg/kg of Compound 1 to the GvHD in vivo model. Compound 1 Initial only was established by orally administering 1 mg/kg of Compound 1 to the GvHD in vivo model only for 6 days after model induction. The therapeutic effect of Compound 1 was verified by measuring the change in body weight every 3 days for each control and experimental group established as above, and the results are shown in FIG. 11 and Table 4. On day 14, the production of CD4^+IFNg^+T cells, which is a major factor inducing GvHD, was measured in the spleens isolated from the mice, and the results are shown in FIG. 12 and Table 5.

Mfn2−/− MEF cells = assay: Mitochondrial oxygen consumption rate, Charcot-Marie-Tooth disease model; format: cell-based, mouse; settings: 1 μM, 24 hours, FIG. 13
Method: To verify the functional loss due to mutation of MFN2 present in the outer mitochondrial membrane, which is the main cause of Charcot-Marie-Tooth disease, the mitochondrial oxygen consumption rate (OCR) was measured. In detail, Mfn2^+/^+MEF cells (normal cells), which are mouse embryonic fibroblasts expressing Mfn2, and Mfn2/MEF cells not expressing Mfn2 were cultured at a density of 1×10^4 for 24 hours in a Seahorse […] culture dish using a DMEM medium supplemented with 10% FBS and penicillin/streptomycin. The cells were treated with DMSO as a vehicle and Compound 1 (1 μM) and cultured for another 24 hours. The mitochondrial oxygen consumption rate was measured using a Seahorse XFe96 analyzer (Agilent Technologies), and the results are shown in FIG. 13.

[3] = system: HCT-116 colorectal cancer; assay: HCT-116 colorectal cancer tumor model; format: in vivo, nude mice; settings: 0.5 and 1.0 mg/kg
Method: A colorectal cancer model was established by subcutaneously transplanting HCT-116 colorectal cancer cell line into nude mice. The colorectal cancer model was divided into the following three groups: Group 1 was administered a vehicle as a control group, Group 2 was administered 0.5 mg/kg of Compound 1, and Group 3 was administered 1.0 mg/kg of Compound 1. The drug was orally administered once a day for a total of 21 times. To evaluate the therapeutic efficacy, the tumor size was measured before drug administration and on days 3, 7, 10, 14, 17, 21, and 24 after drug administration. The tumor size was calculated as follows:
Tumor size (mm^3)=(A×B^2)/2 • wherein A and B represent the tumor long axis and short axis, respectively.
In addition, the body weight was measured before drug administration and on days 7, 14, and 21 after drug administration.

CT26 colorectal cancer = CT26 colorectal cancer tumor model; format: in vivo, nude mice; settings: 1.0 mg/kg, FIG. 22
Method: A colorectal cancer model was established by subcutaneously transplanting CT26 colorectal cancer cell line into nude mice. The colorectal cancer model was divided into two groups: vehicle administration group and Compound 1 administration group. […] Similar to Experimental Example 13, tumor size was calculated before drug administration and on days 3, 7, 10, 14, 18, 22, and 24 after drug administration, and body weight was measured before drug administration and on days 7, 14 and 22 after drug administration, which are shown in FIG. 22.

CC(C(=O)NNc1ccc(F)cc1)n1cc(-c2cc(F)cc3c2-c2ccccc2C3(O)C(F)(F)F)cn1 (centres unmarked) [Compound 1, 2-(4-(2-fluoro-9-hydroxy-9-(trifluoromethyl)-9H-fluoren-4-yl)-1H-pyrazol-1-yl)-N′-(4-fluorophenyl)propanehydrazide]
serum amylase activity [1]: decreased by administration of Compound 1 in a dose-dependent manner
serum lipase activity [1]: decreased by administration of Compound 1 in a dose-dependent manner
body weight recovery (in words) ([2]; Daily and Initial only, 1 mg/kg oral, versus control, FIG. 11): significantly recovered
production of allogeneic CD4+IFNg+T cells (in words) ([2]; Daily and Initial only, 1 mg/kg oral, versus control, FIG. 12): significantly reduced
production of CD4+IFNg+T cells, mean value ([2]; Daily, 1 mg/kg oral gavage): 10.28
production of CD4+IFNg+T cells, mean value ([2]; Initial only (6 days), 1 mg/kg oral): 13.04
mitochondrial oxygen consumption rate (OCR) (Mfn2−/− MEF cells): markedly restored to a level comparable to that of normal cells
body weight change ([3]; oral once a day, 21 times): no significant body weight change
tumor growth (in words) ([3]; oral, p<0.05 versus vehicle, FIG. 21): statistically significant concentration-dependent tumor growth inhibitory effect
body weight change (CT26 colorectal cancer): Neither the vehicle administration group nor the compound 1 administration group showed any change in the body weight
tumor growth (in words) (CT26 colorectal cancer; p<0.05 versus vehicle): statistically significantly delayed and inhibited
